Test results published in ChEMBL document CHEMBL4411309, “Discovery of 2-substituted-N-(3-(3,4-dihydroisoquinolin-2(1H)-yl)-2-hydroxypropyl)-1,2,3,4-tetrahydroisoquinoline-6-carboxamide as potent and selective protein arginine methyltransferases 5 inhibitors: Design, synthesis and biological evaluation” (Eur J Med Chem, 2019).
pIC50: −log10 of the molar value.

Legend:
[1] = Elimination half life in Sprague-Dawley rat at 10 mg/kg, po administered via gavage by LC-MS/MS analysis; format: ADME, organism-based; conditions: in vivo, read-out: beta t1/2 (converted)
[2] = system: MV4-11; assay: Antitumor activity against human MV4-11 cells xenografted in Balb/c nude mouse assessed as tumor growth inhibition at 100 mg/kg, po administered once daily for 30 days relative to control; format: functional; conditions: MV4-11, po, 720 h, read-out: TGI
[3] = Tmax in Sprague-Dawley rat at 10 mg/kg, po administered via gavage by LC-MS/MS analysis; format: ADME, organism-based; conditions: in vivo
[4] = Cmax in Sprague-Dawley rat at 10 mg/kg, po administered via gavage by LC-MS/MS analysis; format: ADME, organism-based; parameters: dose 10 mg/kg, route oral; conditions: in vivo
[5] = Aqueous solubility of the compound; format: physicochemical; conditions: buffer
[6] = AUC in Sprague-Dawley rat at 10 mg/kg, po administered via gavage by LC-MS/MS analysis; format: ADME, organism-based; conditions: in vivo
[7] = biological target: T1, Protein arginine N-methyltransferase 7 (Homo sapiens, UniProt Q9NVM4); assay: Inhibition of recombinant full length human N-terminal FLAG-tagged PRMT7 expressed in Sf9 insect cells preincubated for 15 mins followed by substrate and [3H]SAM addition and measured after 240 mins by microbeta method
T1 sequence (Q9NVM4 whole entry): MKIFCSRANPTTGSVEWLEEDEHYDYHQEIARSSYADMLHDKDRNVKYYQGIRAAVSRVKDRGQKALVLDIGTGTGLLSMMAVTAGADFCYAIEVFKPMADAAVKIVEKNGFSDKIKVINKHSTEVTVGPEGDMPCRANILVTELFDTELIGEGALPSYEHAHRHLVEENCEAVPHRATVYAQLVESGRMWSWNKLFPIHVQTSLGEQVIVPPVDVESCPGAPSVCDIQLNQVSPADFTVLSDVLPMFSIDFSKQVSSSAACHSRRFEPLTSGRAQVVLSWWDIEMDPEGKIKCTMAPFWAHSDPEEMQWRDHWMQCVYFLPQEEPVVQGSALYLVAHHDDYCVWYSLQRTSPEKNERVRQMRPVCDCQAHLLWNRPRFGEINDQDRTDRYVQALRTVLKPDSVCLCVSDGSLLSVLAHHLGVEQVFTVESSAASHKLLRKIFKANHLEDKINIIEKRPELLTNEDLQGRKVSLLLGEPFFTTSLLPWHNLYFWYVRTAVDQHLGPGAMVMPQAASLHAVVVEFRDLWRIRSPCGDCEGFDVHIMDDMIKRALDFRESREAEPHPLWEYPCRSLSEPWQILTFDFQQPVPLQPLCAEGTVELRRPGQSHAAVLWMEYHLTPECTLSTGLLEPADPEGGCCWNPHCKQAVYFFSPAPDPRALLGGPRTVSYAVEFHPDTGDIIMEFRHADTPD

[8] = biological target: Protein arginine N-methyltransferase 6 (Homo sapiens, UniProt Q96LA8); assay: Inhibition of human N-terminal His-tagged PRMT6 (2 to 375 residues) expressed in Escherichia coli preincubated for 15 mins followed by substrate addition and measured after 1 hr by Alphalisa assay
[9] = system: MV4-11; assay: Antiproliferative activity against human MV4-11 cells supplemented with fresh medium containing compound every 4 days measured on day 12 by Celltiter-glo luminescent cell viability assay; format: functional
[10] = biological target: Protein arginine N-methyltransferase 8 (Homo sapiens, UniProt Q9NR22); assay: Inhibition of human N-terminal His/FLAG-tagged PRMT8 (61 to 394 residues) expressed in baculovirus infected Sf9 insect cells preincubated for 15 mins followed by substrate addition and measured after 1 hr by Alphalisa assay
[11] = biological target: PRMT5/MEP50 complex (Homo sapiens, UniProt O14744); assay: Inhibition of recombinant human N-terminal FLAG-tagged PRMT5 (2 to end residues)/human N-terminal His-tagged MEP50 (2 to end residues) expressed in HEK293F cells using H4 peptide as substrate preincubated for 15 mins followed by substrate and [3H]SAM addition and measured after 1 hr by scintillation counting method
[12] = biological target: T2, Histone-arginine methyltransferase CARM1 (Homo sapiens, UniProt Q86X55); assay: Inhibition of human N-terminal FLAG-tagged PRMT4 (2 to end residues) expressed in FreeStyle 293-F cells preincubated for 15 mins followed by substrate addition and measured after 1 hr by Alphalisa assay; format: cell-based
T2 sequence (Q86X55 whole entry): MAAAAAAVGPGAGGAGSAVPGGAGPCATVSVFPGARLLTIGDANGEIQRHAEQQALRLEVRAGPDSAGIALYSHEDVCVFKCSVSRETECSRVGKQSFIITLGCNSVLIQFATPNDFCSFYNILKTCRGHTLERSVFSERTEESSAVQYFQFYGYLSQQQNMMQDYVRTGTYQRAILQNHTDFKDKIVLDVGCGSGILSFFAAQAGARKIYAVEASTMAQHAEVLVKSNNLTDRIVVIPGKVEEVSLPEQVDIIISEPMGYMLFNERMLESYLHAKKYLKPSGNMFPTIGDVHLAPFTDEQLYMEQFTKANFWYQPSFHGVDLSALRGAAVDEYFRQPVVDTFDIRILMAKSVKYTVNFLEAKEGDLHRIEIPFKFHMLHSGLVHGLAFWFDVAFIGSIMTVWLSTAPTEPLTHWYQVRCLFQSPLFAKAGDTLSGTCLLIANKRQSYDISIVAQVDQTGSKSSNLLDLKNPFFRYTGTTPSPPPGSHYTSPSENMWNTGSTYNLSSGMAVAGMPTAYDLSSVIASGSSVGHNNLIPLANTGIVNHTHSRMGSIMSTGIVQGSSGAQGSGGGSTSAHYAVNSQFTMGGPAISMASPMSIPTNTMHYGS

[13] = system: MV4-11; assay: Antiproliferative activity against human MV4-11 cells supplemented with fresh medium containing compound every 4 days measured on day 8 by Celltiter-glo luminescent cell viability assay; format: functional
[14] = biological target: Protein arginine N-methyltransferase 3 (Homo sapiens, UniProt O60678); assay: Inhibition of human N-terminal GST-tagged PRMT3 (2 to end residues) expressed in Escherichia coli preincubated for 15 mins followed by substrate addition and measured after 1 hr by Alphalisa assay
[15] = biological target: Protein arginine N-methyltransferase 1 (Homo sapiens, UniProt Q99873); assay: Inhibition of human N-terminal GST-tagged PRMT1 (2 to end residues) expressed in baculovirus infected Sf9 insect cells preincubated for 15 mins followed by substrate and [3H]SAM addition and measured after 1 hr by microbeta method
Sequence of Protein arginine N-methyltransferase 1 (Q99873 whole entry): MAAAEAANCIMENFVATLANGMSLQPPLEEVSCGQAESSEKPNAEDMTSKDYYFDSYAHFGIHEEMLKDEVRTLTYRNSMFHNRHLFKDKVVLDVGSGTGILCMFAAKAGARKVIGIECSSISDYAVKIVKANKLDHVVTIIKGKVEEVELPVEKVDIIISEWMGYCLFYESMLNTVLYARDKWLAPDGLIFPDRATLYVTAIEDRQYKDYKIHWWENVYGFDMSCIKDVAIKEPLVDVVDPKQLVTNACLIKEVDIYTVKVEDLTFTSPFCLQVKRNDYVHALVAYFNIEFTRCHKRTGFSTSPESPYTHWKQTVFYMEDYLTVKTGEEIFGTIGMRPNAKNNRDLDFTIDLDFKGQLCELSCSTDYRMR

Sequence of Protein arginine N-methyltransferase 6 (Q96LA8 whole entry, the tested form may be a part): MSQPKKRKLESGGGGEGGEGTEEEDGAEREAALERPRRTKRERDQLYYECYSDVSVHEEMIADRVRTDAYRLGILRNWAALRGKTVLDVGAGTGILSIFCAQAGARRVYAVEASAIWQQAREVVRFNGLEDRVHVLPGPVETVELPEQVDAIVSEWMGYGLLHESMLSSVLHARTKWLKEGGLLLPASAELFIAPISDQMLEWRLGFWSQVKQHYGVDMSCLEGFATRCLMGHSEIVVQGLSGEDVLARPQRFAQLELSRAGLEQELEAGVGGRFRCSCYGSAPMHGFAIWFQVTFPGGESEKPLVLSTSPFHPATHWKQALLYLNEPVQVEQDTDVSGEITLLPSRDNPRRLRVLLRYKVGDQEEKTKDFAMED
Sequence of Protein arginine N-methyltransferase 8 (Q9NR22 whole entry, the tested form may be a part): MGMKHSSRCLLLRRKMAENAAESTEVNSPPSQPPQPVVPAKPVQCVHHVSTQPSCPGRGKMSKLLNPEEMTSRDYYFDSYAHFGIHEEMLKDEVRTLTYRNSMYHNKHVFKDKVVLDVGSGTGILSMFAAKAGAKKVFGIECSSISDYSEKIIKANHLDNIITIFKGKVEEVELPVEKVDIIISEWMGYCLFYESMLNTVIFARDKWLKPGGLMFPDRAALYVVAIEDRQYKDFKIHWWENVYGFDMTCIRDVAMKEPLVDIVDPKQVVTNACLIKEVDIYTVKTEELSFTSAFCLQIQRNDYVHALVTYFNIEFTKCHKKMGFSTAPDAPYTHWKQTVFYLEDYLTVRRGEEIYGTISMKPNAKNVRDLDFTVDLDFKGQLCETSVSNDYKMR
Sequence of PRMT5/MEP50 complex (O14744 whole entry): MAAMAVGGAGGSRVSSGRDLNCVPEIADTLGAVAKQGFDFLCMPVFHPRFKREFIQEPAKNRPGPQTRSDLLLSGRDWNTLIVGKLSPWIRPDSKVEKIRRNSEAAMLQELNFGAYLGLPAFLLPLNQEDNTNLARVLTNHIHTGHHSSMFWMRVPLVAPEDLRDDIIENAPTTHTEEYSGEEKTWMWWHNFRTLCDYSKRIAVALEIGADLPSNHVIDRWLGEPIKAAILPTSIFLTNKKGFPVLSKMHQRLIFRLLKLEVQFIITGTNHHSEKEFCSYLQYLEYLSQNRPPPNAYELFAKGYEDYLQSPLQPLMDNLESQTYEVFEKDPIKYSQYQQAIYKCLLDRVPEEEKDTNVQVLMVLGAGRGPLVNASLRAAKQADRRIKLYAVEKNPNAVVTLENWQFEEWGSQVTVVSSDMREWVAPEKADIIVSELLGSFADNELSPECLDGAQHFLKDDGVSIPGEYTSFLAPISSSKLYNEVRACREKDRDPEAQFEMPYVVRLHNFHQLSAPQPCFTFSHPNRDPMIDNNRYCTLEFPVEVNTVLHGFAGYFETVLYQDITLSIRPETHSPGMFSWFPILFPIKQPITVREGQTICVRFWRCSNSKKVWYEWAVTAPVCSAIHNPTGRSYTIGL
Sequence of PRMT5/MEP50 complex (Q9BQA1 whole entry, further chain): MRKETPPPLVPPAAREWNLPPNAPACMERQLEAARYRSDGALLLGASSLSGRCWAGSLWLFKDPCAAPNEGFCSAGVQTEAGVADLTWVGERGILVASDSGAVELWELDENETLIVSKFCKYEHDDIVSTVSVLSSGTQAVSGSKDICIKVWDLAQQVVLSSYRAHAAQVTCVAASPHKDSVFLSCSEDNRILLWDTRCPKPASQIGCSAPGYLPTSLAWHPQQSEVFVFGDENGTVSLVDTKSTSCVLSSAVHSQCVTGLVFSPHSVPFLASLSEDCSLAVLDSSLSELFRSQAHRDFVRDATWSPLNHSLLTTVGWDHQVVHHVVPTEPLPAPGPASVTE
Sequence of Protein arginine N-methyltransferase 3 (O60678 whole entry): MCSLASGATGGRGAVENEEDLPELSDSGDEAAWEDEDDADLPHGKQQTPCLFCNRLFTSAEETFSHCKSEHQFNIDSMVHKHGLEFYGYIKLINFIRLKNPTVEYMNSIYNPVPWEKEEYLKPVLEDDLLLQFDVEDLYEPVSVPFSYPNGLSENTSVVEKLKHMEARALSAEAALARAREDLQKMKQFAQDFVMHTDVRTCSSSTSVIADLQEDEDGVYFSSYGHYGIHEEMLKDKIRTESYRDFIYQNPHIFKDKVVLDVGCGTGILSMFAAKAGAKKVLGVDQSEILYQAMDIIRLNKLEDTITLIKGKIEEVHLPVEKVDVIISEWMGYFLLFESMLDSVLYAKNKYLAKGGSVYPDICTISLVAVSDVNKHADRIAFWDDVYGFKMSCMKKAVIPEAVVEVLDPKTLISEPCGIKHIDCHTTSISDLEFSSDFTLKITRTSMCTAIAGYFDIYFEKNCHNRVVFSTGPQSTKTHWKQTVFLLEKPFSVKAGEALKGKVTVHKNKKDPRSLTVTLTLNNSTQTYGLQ

Row | half-life [1] | Tmax [3] | Cmax [4] | solubility [5] | AUC [6] | pIC50 [7] | pIC50 [8] | GI50 [9] | pIC50 [10] | pIC50 [11] | pIC50 [12] | GI50 [13] | pIC50 [14] | pIC50 [15] | SMILES | inhibition in vivo at 100 mg/kg [2]
1 | 4.6 h | 0.583 h | 32 ng/mL | Soluble | 168 ng·h/mL | – | – | – | – | – | – | – | – | – | Cl.O=C(NC[C@H](O)CN1CCc2ccccc2C1)c1ccc2c(c1)CCN(C(=O)c1ccc(Br)cc1)C2 | 54%
2 | – | – | – | Insoluble | – | < 4.00 | < 4.00 | 0.018 µM | < 4.00 | 8.07 | < 4.00 | 0.025 µM | < 4.00 | < 4.00 | O=C(NC[C@H](O)CN1CCc2ccccc2C1)c1ccc2c(c1)CCN(C(=O)c1ccc(Br)cc1)C2 | –
